Reference: patent publication US20050085546A1, “Method of inducing differentiation of dendritic cells” (Council of Scientific & Industrial Research, priority 2003, published 2005)

How the values were obtained:
BM leukocyte precursors [1] = experiment: Viability of stimulated BM leukocyte precursor cultures; assay type: cell-based, BALB/c mouse; design: Viability, % of Viable cells: reference not given here
Procedure: (§1) The fine suspension obtained above was transferred into a 50 ml sterile centrifuge tube and centrifuged for 10 minutes at 1200 rpm. […] The pellets were washed using HBSS wash buffer and then centrifuged again for 10 minutes at 1200 rpm. This process was repeated for one more time. […] This suspension was then finally passed through a MACS (Magnetic Activated Cell Sorting) column to get essentially and predominately leukocyte precursors.

BM leukocyte precursors [2] = experiment: Differentiation of dendritic cells from bone marrow leukocyte precursors; cell surface marker expression by flow cytometry; assay type: cell-based, BALB/c mouse; details: for differentiation of dendritic cells (in words): from BM precursors
Procedure: Cells were stained for the surface levels of indicated markers. Plates A-D represent surface levels of CD80, CD54, CD11c and H-2D (MHC class 1), respectively. […] The Green line represents staining of stimulated cells while the black line depicts staining of unstimulated cells.
as §1
In order to evaluate the upregulation of various cell surface markers associated with Dendritic cells, flow cytometry on the cells stimulated with GM-CSF or the compound was carried out using fluorescent labeled antibodies to various molecules (CD11c, I-A^d, CD80, CD86, H2-D^d, CD54, CD40).
The hind limbs of the mouse were removed carefully and placed in a Petri dish with HBSS (Hanks Balanced Saline Solution) wash buffer. The tibias and femurs were cleared of all surrounding and attached tissues. This was followed by chipping the ends of bones. The bone marrow was flushed out by injecting HBSS solution into the bone with the help of a hypodermal syringe (No. 26 gauge). The bone marrow was finally made into a fine suspension by syringing in and out of the fluid several times using an 18 gauge syringe needle.

[3] = test system: osteoclast precursors (murine bone marrow cells, M-CSF + RANKL); experiment: In vitro osteoclastogenesis assay (TRAP staining); assay type: cell-based, Balb/c mice; details: M-CSF + RANKL + compound 5.0 μg/ml, 6 days
[4] = test system: osteoclast precursors (murine bone marrow cells, M-CSF + RANKL); experiment: In vitro osteoclastogenesis assay (TRAP staining); assay type: cell-based, Balb/c mice; details: for % inhibition of osteoclast formation / Number of TRAP-positive multinuclear cells/well of 96 well plate (Mean ± SEM): 6 days
From the text: Culture of murine bone marrow cells in the presence of M-CSF and RANKL induces the formation of osteoclasts, which were detected as TRAP-positive cells. […] Values given are the mean±SD of five separate experiments.
For in vitro osteoclastogenesis bone marrow cells were isolated from 5- to 8-wk-old Balb/c mice. Mice were sacrificed by cervical dislocation and femora and tibiae were aseptically removed and dissected free of adherent soft tissues. The bone ends were cut, and the marrow cavity was flushed out with medium MEM from one end of the bone using a sterile 21-gauge needle. The bone marrow suspension was carefully agitated with a plastic Pasteur pipette to obtain a single-cell suspension. The cells were washed twice and resuspended (10^6 cells/ml) in aMEM containing 10% FBS. […] After 24 h, nonadherent cells were harvested and layered on a Ficoll-Hypaque gradient. Cells at the gradient interface were collected, washed and resuspended (5×10^5/ml) in AMEM containing 10% FBS. In this study, we called these stromal cell-free, M-CSF-dependent, nonadherent cells as osteoclast precursors. These osteoclast precursors were added to 96-well plates (100 μl/well) containing plastic coverslips. Each well received further 100 μl of medium containing M-CSF (30 ng/ml), RANKL (30 ng/ml) without or with various concentrations of purified compound. Cultures were fed every 2-3 days and after incubation for 6 days osteoclast formation was evaluated by tartrate-resistant acid phosphatase (TRAP) staining. The number of TRAP-positive multinucleated cells (MNCs) containing 3 or more nuclei was scored.
TRAP is preferentially expressed at high levels in osteoclast and is considered, especially in the mouse, to be an osteoclast marker. Cytochemical staining for TRAP is widely used for identifying the osteoclasts in vivo and in vitro. It is claimed to be specific for osteoclasts in bone. After incubation, cells on cover slips were washed in PBS, fixed in 10% formalin for 10 min and stained for acid phosphatase in the presence of 0.05 M sodium tartrate. The substrate used was napthol AS-BI phosphate. Only those cells that were strongly TRAP-positive (dark red) counted by light microscopy.

[5] = M-CSF + RANKL + compound 0.5 μg/ml
[6] = M-CSF + RANKL + compound 1.5 μg/ml
[7] = M-CSF + RANKL + compound 3.0 μg/ml
[8] = M-CSF + RANKL + compound 5.0 μg/ml
[9] = Table B, concentration not given
[10] = Table A, 15 ng/ml GM-CSF or 50 micro gram per ml synthetic compound, 48 h

In the case of `O=C([O-])CC[C@H](NS(=O)(=O)[O-])C(=O)[O-].O=C([O-])CC[C@H](NS(=O)(=O)[O-])C(=O)[O-].[Ca+2].[Ca+2].[Ca+2]` [compound 1, L-glutamyl-N-sulphonic acid, Ca salt], the “viability of the cultures at the end of the incubation period” value (BM leukocyte precursors [1]; 200 mM, 48 h) is reported as “more than 99%”, the “viability of the cultures at the end of the incubation period” value (BM leukocyte precursors [1]; 50 micro gram per ml, 48 h) is reported as > 99% and the “concentration of maximum up regulation of cell surface densities of CD11c, CD80, CD54” value (BM leukocyte precursors [2]; BM leukocyte precursors incubated with different concentrations) is reported as 200 mM. The “differentiation of dendritic cells (in words)” value (BM leukocyte precursors [2]; listed as Compound I) was “Induces Differentiation of Dendritic Cells”, the “differentiation of dendritic cells (in words)” value (BM leukocyte precursors [2]; listed as the compound) was “induces the differentiation of DCs from BM precursors” and the “Number of TRAP-positive multinuclear cells/well of 96 well plate (Mean ± SEM)” value [3] was 2.83 ± 1.05 cells/well. For the same compound, the “% inhibition of osteoclast formation” value [4, 5] was 21.01%, the “Number of TRAP-positive multinuclear cells/well of 96 well plate (Mean ± SEM)” value [4, 5] was 109.67 ± 9.79 cells/well and the “% inhibition of osteoclast formation” value [4, 6] was 62.19%. The “Number of TRAP-positive multinuclear cells/well of 96 well plate (Mean ± SEM)” value [4, 6] was 52.17 ± 6.42 cells/well, the “% inhibition of osteoclast formation” value [4, 7] was 89.36% and the “Number of TRAP-positive multinuclear cells/well of 96 well plate (Mean ± SEM)” value [4, 7] was 14.67 ± 1.98 cells/well. The “% inhibition of osteoclast formation” value [4, 8] was 97.94% and the “inhibition in the number of osteoclast cells generated (in words)” value ([4]; increasing dose) was “dose dependent inhibition”.

For `O=C(O)CC[C@H](NS(=O)(=O)O)C(=O)O` [compound 3, L-glutamyl-N-sulphonic acid], the “Viability, % of Viable cells” value (BM leukocyte precursors [1]; [9]) was 115%, the “Number of TRAP-positive multinuclear cells/well of 96 well plate (Mean ± SEM)” value [3] was 110.00 ± 6.72 cells/well and the “Number of TRAP-positive multinuclear cells/well of 96 well plate (Mean ± SEM)” value [4, 5] was 154.67 ± 8.43 cells/well. The “Number of TRAP-positive multinuclear cells/well of 96 well plate (Mean ± SEM)” value [4, 6] was 150.33 ± 8.82 cells/well, the “% inhibition of osteoclast formation” value [4, 7] was 23.23% and the “Number of TRAP-positive multinuclear cells/well of 96 well plate (Mean ± SEM)” value [4, 7] was 112.67 ± 8.63 cells/well. The “% inhibition of osteoclast formation” value [4, 8] was 25.08%.

In the case of “GM-CSF: the growth factor that is conventionally used to generate DCs in vitro”, the “Viability, % of Viable cells” value (BM leukocyte precursors [1]; [10]) is reported as 180%, the “Viability, % of Viable cells” value (BM leukocyte precursors [1]; [9]) is reported as 180% and the “Fold increase in Relative MFI over unstimulated control, CD11c” value (BM leukocyte precursors [2]; [10]) is reported as 5.0 fold. The “Fold increase in Relative MFI over unstimulated control, CD54” value (BM leukocyte precursors [2]; [10]) was 4.0 fold, the “Fold increase in Relative MFI over unstimulated control, CD80” value (BM leukocyte precursors [2]; [10]) was 3.3 fold and the “Fold increase in Relative MFI over unstimulated control, H-2D^d” value (BM leukocyte precursors [2]; [10]) was 2.0 fold. The “Fold increase in Relative MFI over unstimulated control, CD11c” value (BM leukocyte precursors [2]; [9]) was 5.0 fold, the “Fold increase in Relative MFI over unstimulated control, CD54” value (BM leukocyte precursors [2]; [9]) was 4.0 fold and the “Fold increase in Relative MFI over unstimulated control, CD80” value (BM leukocyte precursors [2]; [9]) was 3.3 fold. The “Fold increase in Relative MFI over unstimulated control, H-2D^d” value (BM leukocyte precursors [2]; [9]) was 2.0 fold.
